From US11712438B2, “Phenyl derivatives as PGE2 receptor modulators” (IDORSIA PHARMACEUTICALS LTD, priority 2017, dated 2023) come the findings set out here.

What all share (assay): cell-based
In experiment [1] the target is PTRGER4 (EP4) (Homo sapiens, UniProt P35408).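 Also: assay plate preincubated 15 min at 37 °C, after which PGE2 was added at 20 nM final and incubation continued 120 min at 37 °C.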
In experiment [2] the target is EP2 (Homo sapiens, UniProt P43116).
Experiment [3] concerns the target EP4 (Homo sapiens, UniProt P35408).
The target in experiment [4] is PTGER2 (EP2) (Homo sapiens, UniProt P43116).
Sequence of PTGER2 (EP2) (P43116 whole entry): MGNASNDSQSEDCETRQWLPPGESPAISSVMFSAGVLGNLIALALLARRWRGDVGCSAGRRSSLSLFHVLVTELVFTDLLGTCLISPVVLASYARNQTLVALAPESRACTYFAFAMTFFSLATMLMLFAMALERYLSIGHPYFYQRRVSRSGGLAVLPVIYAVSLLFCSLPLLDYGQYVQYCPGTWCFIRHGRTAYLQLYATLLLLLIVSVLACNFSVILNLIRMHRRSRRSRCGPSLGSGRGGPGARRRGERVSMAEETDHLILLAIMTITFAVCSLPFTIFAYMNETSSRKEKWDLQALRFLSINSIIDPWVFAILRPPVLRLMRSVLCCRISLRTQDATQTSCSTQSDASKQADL
From the text: The assay is using the PathHunter™ HEK 293 PTGER2 and PTGER4 b-arrestin cell lines from DiscoverX. The system is based on the Enzyme Fragment Complementation Technology. Two complementing fragments of the b-galactosidase enzyme are expressed within stably transfected cells. The larger portion of b-gal, termed EA for Enzyme Acceptor, is fused to the C-terminus of b-arrestin 2. The smaller fragment, termed ProLink™ tag, is fused to PTGER2 (EP2) or PTRGER4 (EP4) at the C-terminus. Upon activation, b-arrestin is recruited which forces the interaction of ProLink and EA, allowing complementation of the two fragments of b-gal and the formation of a functional enzyme which is capable of hydrolysing the substrate and generating a chemiluminescent signal.
The HEK 293 PTGER2 b-arrestin cells (DiscoverX 93-021-4C1) are detached from culture dishes with a cell dissociation buffer (Invitrogen, 13151-014), and collected in growing medium (GM: DMEM+Glutamax-I (Invitrogen 32430)/10% FCS, 1% Penicilin/streptomycin). 5000 cells per well of a 384 well plate (white with white bottom Greiner 781080) are seeded in 20 ul per well of GM. Plate is incubated at 37° C., 5% CO2 for 24 hours.
Stock solutions of test compounds are made at a concentration of 10 mM in DMSO, and serially diluted in DMSO to concentrations required for inhibition dose response curves (tested concentration range 10 μM-2 nM or 1 μM-0.2 nM).
PGE2 (Cayman 14010, stock solution: 10 mM in DMSO) is used as agonist at 5 μM final concentration, corresponding to EC80.
Five microliters of diluted compounds are transferred into the assay plate. Plate is pre-incubated 15 minutes at 37° C. Then five microliters of PGE2 (final conc. 5 μM) are transferred into the assay plate. Plate is incubated 120 minutes at 37° C.
Twelve μl of reagent are transferred to the assay plate and incubate for 1 hour at room temperature in the dark. Luminescence counts are read on a BMG Fluostar Optima reader according to manufacturer's instructions.
For each compound concentration calculate of the percentage of activity compared to DMSO control value as average±STDEV. (each concentration is measured in duplicate)
When compounds were measured multiple times, mean values are given.

Sequence of EP4 (P35408 whole entry): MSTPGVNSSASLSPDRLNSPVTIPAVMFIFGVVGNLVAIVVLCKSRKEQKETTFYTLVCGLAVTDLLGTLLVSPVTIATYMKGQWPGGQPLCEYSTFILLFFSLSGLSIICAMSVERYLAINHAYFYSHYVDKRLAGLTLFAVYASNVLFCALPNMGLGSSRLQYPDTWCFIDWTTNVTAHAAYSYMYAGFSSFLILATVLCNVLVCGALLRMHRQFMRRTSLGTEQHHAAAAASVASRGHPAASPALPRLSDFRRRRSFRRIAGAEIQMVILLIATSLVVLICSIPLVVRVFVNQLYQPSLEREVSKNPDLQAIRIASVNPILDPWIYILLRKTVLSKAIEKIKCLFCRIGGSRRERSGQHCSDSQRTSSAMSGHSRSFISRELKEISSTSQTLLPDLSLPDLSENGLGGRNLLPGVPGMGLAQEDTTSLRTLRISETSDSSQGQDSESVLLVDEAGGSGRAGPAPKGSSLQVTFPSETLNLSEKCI
Sequence of PTRGER4 (EP4) (P35408 whole entry): as above
Sequence of EP2 (P43116 whole entry): as the sequence (P43116 whole entry) above

As to `CCOc1cc(-c2cc(NCCc3cccc(C(=O)OC)c3)ncn2)sc1C(=O)O` [Example 76, 3-Ethoxy-5-{6-[2-(3-methoxycarbonyl-phenyl)-ethylamino]-pyrimidin-4-yl}-thiophene-2-carboxylic acid], the IC50 in experiment [1] worked out at 310 nM; in experiment [2], 234 nM; in experiment [3] it was 88 nM; in experiment [4], 488 nM.

Regarding `CCOc1cc(-c2cc(NCCc3c(F)cc(Br)cc3F)ncn2)ccc1-c1cc(O)no1` [Example 273, 5-(4-{6-[2-(4-Bromo-2,6-difluoro-phenyl)-ethylamino]-pyrimidin-4-yl}-2-ethoxy-phenyl)-isoxazol-3-ol], the IC50 in experiment [1] came out at 56 nM; in experiment [2], 364 nM; in experiment [3] it was 211 nM; in experiment [4], 45 nM.

As to `CNc1cc(-c2cc(NCCc3c(F)cc(Br)cc3F)ncn2)ccc1-c1noc(=O)[nH]1` [Example 296, 3-(4-{6-[2-(4-Bromo-2,6-difluoro-phenyl)-ethylamino]-pyrimidin-4-yl}-2-methylamino-phenyl)-[1,2,4]oxadiazol-5(4H)-one], the IC50 was determined as 9 nM in experiment [1], 44 nM in experiment [2], 14 nM in experiment [3] and 12 nM in experiment [4].

In the case of `CCOc1cc(-c2cc(NCCc3c(F)ccc(Cl)c3F)ncn2)sc1-c1noc(=O)[nH]1` [Example 98, 3-(5-{6-[2-(3-Chloro-2,6-difluoro-phenyl)-ethylamino]-pyrimidin-4-yl}-3-ethoxy-thiophen-2yl)-[1,2,4]oxadiazol-5(4H)-one], the concentration for half-maximal inhibition (IC50) in experiment [1] is 14 nM; in experiment [2], 83 nM; in experiment [3] it was 50 nM; in experiment [4], 53 nM.

In the case of `CCOc1cc(-c2cc(NCCc3ccc(Br)cc3)ncn2)sc1CC(=O)O` [Example 17, (5-{6-[2-(4-Bromo-phenyl)-ethylamino]-pyrimidin-4-yl}-3-ethoxy-thiophen-2-yl)-acetic acid], the IC50 in experiment [1] was 147 nM; in experiment [2], 189 nM; in experiment [3], 293 nM; in experiment [4], 202 nM.
